# Earlier results, collected in patent US20260108469A1, “COMPOSITIONS COMPRISING WATER INSOLUBLE DRUGS AND METHODS OF PRODUCING AND USING SAME” (priority 2023, published 2026).
compound,measurement,setting,value
"CCc1c2c(nc3ccc(O)cc13)-c1cc3c(c(=O)n1C2)COC(=O)[C@]3(O)CC [SN-38, 7-ethyl-10-hydroxycamptothecin]",solubility in water-based solutions,,not soluble in water-based solutions
"CVKRGLKLRHVRPRVTRMDV (cell penetrating peptide (CPP)) [20 amino acid cell penetrating peptide, DPV1047 with an added N-terminal Cys]",solubility in water,water,> 500 mg/mL
